Experimental data reported in patent publication US9814730B2 (FLAMINA HOLDING AG, priority 2013, dated 2017).

Test system: autocrine HCG production in adult cells
Experiment: Inhibition of autocrine HCG production in adult cells (in vitro experiments)
Format: cell-based, human
Conditions: very low amount of active agent
Method: Extrapolations of in vitro experiments indicate that already 0.1 mg to 2 mg per kg body weight and per year, preferably 0.5 mg to 1 mg per kg body weight and per year of the active agent are sufficient. However, as detailed below the dosage can be up to a factor 5 higher and can thus range between 0.1 mg to 10 mg per kg body weight and per year.

C/C=C\[C@]1(O)CC[C@H]2[C@@H]3CCC4=CC(=O)CCC4=C3[C@@H](c3ccc(N(C)C)cc3)C[C@@]21C [RU534, Aglepristone]
inhibition of autocrine HCG production: successfully achieved
